Results on 47 compounds are retold here after patent publication US12023336B2, “Antiviral drug compounds and composition thereof” (priority 2018, dated 2024).

Structures can show the parent of a compound that is named as a salt.

The first assay relates to HIV-1NL4.3. Put plainly: microbe, parasite or virus in culture. The format is cell-based. Conditions: 10 μM; HIV-1NL4.3 0.1 MOI; TZM-bl cells; luminescence 48 h. As to the method: TZM-bl cells were seeded at the density of 12,000-15,000 cells/well of 96 well plate with 100 μL DMEM (with 10% FBS) in each well. 12-hours post seeding, the media was replaced with fresh DMEM containing HTV-1NL4.3 at 0.1 MOI and cells were treated with different molecules independently at 10 μM working concentration. Cells were incubated in humidified CO2 incubator for 4-hours. After incubation, the media was replaced and cells were washed twice with incomplete DMEM and 100 μL of complete DMEM was added in each wells along with the molecules of interest and incubated at 37° C. in humidified CO2 incubator. 48-hours post incubation, the media was removed and cells were washed twice with 100 μL of 1×PBS. After washing, cells were lysed using cell culture lysis reagent and Steady-Glo substrate was added at 1:1 ration in each well. Luminescence was measured using Molecular Devices M5 (Table 2). % Inhibition was calculated using following formula and plotted.
[formula] (RLU=Relative Luminescence Unit)
By % Inhibition is commonly meant the share of the control response that was lost under treatment. In the case of `CC(=O)OC[C@H]1O[C@@H]([S-])[C@H](OC(C)=O)[C@@H](OC(C)=O)[C@@H]1OC(C)=O.CCP(CC)CC.[Au+]` [Auranofin], the “% Inhibition at 10 μM Concentration” value stood at 96.08%.

In the case of `CS(=O)(=O)c1cccc(CNc2nc(Nc3ccc4c(c3)CCC(=O)N4)ncc2C(F)(F)F)c1` [PF-573228], the “% Inhibition at 10 μM Concentration” value came to 97.23%.

In the case of `O=C(O)/C=C\C(=O)O.O=C1/C(=C/c2ccccc2)C[C@@]2(O)[C@H]3Cc4ccc(O)c5c4[C@@]2(CCN3CC2CC2)[C@H]1O5` [BNTX maleate salt hydrate], the “% Inhibition at 10 μM Concentration” value turned out to be 99.26%.

Regarding `NC(Cc1cc(O)c(O)cc1O)C(=O)O` (racemic) [6-Hydroxy-DL-DOPA], the “% Inhibition at 10 μM Concentration” value turned out to be 96.67%.

With `CCc1ccccc1OC[C@@H](O)CN[C@H]1CCCc2ccccc21.O=C(O)C(=O)O` [SR 59230A oxalate], the “% Inhibition at 10 μM Concentration” value is recorded as 97.52%.

Regarding `Oc1ccc(/C=C/c2ccc(/C=C/c3ccc(O)cc3)c(Br)c2)cc1` [K114], the “% Inhibition at 10 μM Concentration” value is reported as 96.16%.

Take `CC(C)[C@H]1c2ccc(F)cc2CC[C@@]1(CCN(C)CCCc1nc2ccccc2[nH]1)OC(=O)C1CC1` [NNC 55-0396]: the “% Inhibition at 10 μM Concentration” value was 97.75%.

As for `CC1=C(/C=C/C(C)=C/C=C/C(C)=C/C(=O)Nc2ccc(O)cc2)C(C)(C)CCC1` [Retinoic acid p-hydroxyanilide], the “% Inhibition at 10 μM Concentration” value was found to be 98.52%.

As for `O=[N+]([O-])/C=C/c1ccc2c(c1)OCO2` [MNS], the “% Inhibition at 10 μM Concentration” value was determined as 99.63%.

For the compound `Cc1ccc(S(=O)(=O)N[C@@H](Cc2ccccc2)C(=O)CCl)cc1` [N-p-Tosyl-L-phenylalanine chloromethyl ketone], the “% Inhibition at 10 μM Concentration” value is on record as 98.76%.

As for `N[C@@H](Cn1oc(=O)[nH]c1=O)C(=O)O` [(+)-Quisqualic acid], the “% Inhibition at 10 μM Concentration” value came to 99.30%.

For `CCCN1CCC[C@@H](c2cccc(O)c2)C1.Cl` [S(−)-3PPP hydrochloride], the “% Inhibition at 10 μM Concentration” value is reported as 98.60%.

As for `O=c1oc(Cl)c(Cl)c2ccccc12` [Dichloroisocoumarin], the “% Inhibition at 10 μM Concentration” value was 97.06%.

Regarding `COc1ccc(-c2cc3nccn3c(Nc3ncccc3C(N)=O)n2)cc1OC.Cl.O` [BAY 61-3606 hydrochloride hydrate], the “% Inhibition at 10 μM Concentration” value is reported as 95.05%.

Take `CC(C)NC[C@H](O)COc1cccc2ccccc12.Cl` [(S)-Propranolol hydrochloride]: the “% Inhibition at 10 μM Concentration” value was determined as 99.30%.

For `O=C(Nc1cccc(C(=O)Nc2ccc(S(=O)(=O)O)c3cc(S(=O)(=O)O)cc(S(=O)(=O)O)c23)c1)Nc1cccc(C(=O)Nc2ccc(S(=O)(=O)O)c3cc(S(=O)(=O)O)cc(S(=O)(=O)O)c23)c1` [NF 023], the “% Inhibition at 10 μM Concentration” value is given as 95.77%.

For the compound `CNCCNS(=O)(=O)c1cccc2cnccc12.Cl.Cl` [H-8 dihydrochloride], the “% Inhibition at 10 μM Concentration” value turned out to be 99.57%.

As to `Nc1ccc(-c2nc3ccc(-c4nc5ccc(N)cc5[nH]4)cc3[nH]2)cc1` [RO 90-7501], the “% Inhibition at 10 μM Concentration” value is on record as 99.67%.

On to `Cn1c(=O)c(-c2c(Cl)cccc2Cl)cc2cnc(Nc3ccc(N4CCOCC4)cc3)nc21` [PD173952], for which the “% Inhibition at 10 μM Concentration” value is 96.16%.

Consider `COc1ccccc1CNCCCCCCNCCCCCCCCNCCCCCCNCc1ccccc1OC` [Methoctramine tetrahydrochloride], for which the “% Inhibition at 10 μM Concentration” value is 98.94%.

Turning to `Nc1nc2c(ncn2CCOCP(=O)(O)O)c(=O)[nH]1` [PMEG hydrate], the “% Inhibition at 10 μM Concentration” value is 99.36%.

Take `CCOC(=O)c1ncn2c1[C@@H]1CCCN1C(=O)c1cc(OC)ccc1-2` [L-655,708]: the “% Inhibition at 10 μM Concentration” value was determined as 97.43%.

For the compound `CC(C)NC[C@@H](O)c1ccc(O)c(O)c1.O=C(O)C(O)C(O)C(=O)O` [S(+)-Isoproterenol (+)-bitartrate], the “% Inhibition at 10 μM Concentration” value is listed as 97.10%.

The same assay, now with this note: Human immunodeficiency virus 1, TZM-bl, 48 h, read-out: % Inhibition at 10 μM Concentration.
As for `N#CC(=C(/N)Sc1ccccc1N)/C(C#N)=C(\N)Sc1ccccc1N` [U0126], the inhibition at 10 µM stood at 97.4%.

For `O=C1c2ccccc2C(=O)c2c(NCCc3ccc(O)cc3)ccc(NCCc3ccc(O)cc3)c21` [1,4-Bis[(p-hydroxyphenethyl)amino]-anthraquinone], the inhibition at 10 µM was 98.9%.

Turning to `CNCCCC12CCC(c3ccccc31)c1ccccc12` [Maprotiline hydrochloride], the inhibition at 10 µM worked out at 98.9%.

The same assay, now with this note: Human immunodeficiency virus 1; 10 μM; HIV-1NL4.3 0.1 MOI; TZM-bl cells; luminescence 48 h; read-out: % Inhibition at 10 μM Concentration.
Consider `CC[C@@]1(O)C(=O)OCc2c1cc1n(c2=O)Cc2cc3c(CN(C)C)c(O)ccc3nc2-1` [Topotecan hydrochloride hydrate], for which the inhibition at 10 µM worked out at 98.1%.

`O=C1Cc2c([nH]c3ccc(Br)cc23)-c2ccccc2N1` [Kenpaullone]: the inhibition at 10 µM came out at 98.7%.

Take `CC[N+](CC)(CC)CCOc1ccc(/C=C/c2ccccc2)cc1` [MG 624]: the inhibition at 10 µM amounted to 97.1%.

`NC(=O)CN1CC(O)CC1=O` (centres unmarked) [Oxiracetam]: the inhibition at 10 µM is 96.5%.

Turning to `Cc1ccc(-c2cc(C(F)(F)F)nn2-c2ccc(S(N)(=O)=O)cc2)cc1` [Celecoxib], the inhibition at 10 µM came to 95.1%.

With `N=C(N)N/N=C/c1c(Cl)cccc1Cl` [Guanabenz acetate], the inhibition at 10 µM was 99.6%.

Consider `Oc1c2ccccc2c2c3c(cccc13)N=N2` [SP600125], for which the inhibition at 10 µM was found to be 97.5%.

As to `CC1=NN=C(c2ccc(N)cc2)c2cc3c(cc2C1)OCO3` [GYKI 52466 hydrochloride], the inhibition at 10 µM turned out to be 99.3%.

On to `O=C1c2c(O)ccc(O)c2C(=O)c2c(NCCNCCO)ccc(NCCNCCO)c21` [Mitoxantrone], for which the inhibition at 10 µM is 97.1%.

`COc1cc2nc(N3CCN(C(=O)C4COc5ccccc5O4)CC3)nc(N)c2cc1OC` (centres unmarked) [Doxazosin mesylate]: the inhibition at 10 µM came to 100%.

For the compound `CCN(CC)CCCC(C)Nc1c2ccc(Cl)cc2nc2ccc(OC)cc12` (centres unmarked) [Quinacrine dihydrochloride], the inhibition at 10 µM worked out at 100%.

For the compound `CCCCc1ncc(/C=C(\Cc2cccs2)C(=O)O)n1Cc1ccc(C(=O)O)cc1` [Eprosartan mesylate], the inhibition at 10 µM is 99.8%.

Take `CCCCNc1c(C(=O)OCC)c(C)nc2c1cnn2CC` [Tracazolate]: the inhibition at 10 µM came to 99.1%.

Regarding `OCCN1CCN(CCCN2c3ccccc3Sc3ccc(Cl)cc32)CC1` [Perphenazine], the inhibition at 10 µM stood at 99.6%.

In the case of `COC(=O)C1=C(C)NC(C)=C(C(=O)OCCN(C)Cc2ccccc2)C1c1cccc([N+](=O)[O-])c1` (centres unmarked) [Nicardipine hydrochloride], the inhibition at 10 µM amounted to 99.6%.

Regarding `Cc1cnc(C(=O)NCCc2ccc(S(=O)(=O)NC(=O)NC3CCCCC3)cc2)cn1` [Glipizide], the inhibition at 10 µM is 98.5%.

`CCCCN(CC)c1nc(C)nc2c1c(C)cn2-c1c(C)cc(C)cc1C` [CP-154526 hydrochloride]: the inhibition at 10 µM was 97.1%.

In the case of `O=C(O)C1=CC(=C(c2ccc(O)c(C(=O)O)c2)c2ccc(O)c(C(=O)O)c2)C=CC1=O` [Aurintricarboxylic acid], the inhibition at 10 µM turned out to be 97.2%.

For `CCN(CC)CCOc1ccc(Nc2ncc3cc(-c4c(Cl)cccc4Cl)c(=O)n(C)c3n2)cc1` [PD-166285 hydrate], the inhibition at 10 µM turned out to be 97%.

Take `CN[C@@H]1C[C@@H](c2ccc(Cl)c(Cl)c2)c2ccccc21` [Indatraline hydrochloride]: the inhibition at 10 µM is 97.4%.

On to `CC(C)(C)c1ccc(C(O)CCCN2CCC(C(O)(c3ccccc3)c3ccccc3)CC2)cc1` (centres unmarked) [Terfenadine], for which the inhibition at 10 µM came to 98.7%.
